Source: patent publication US20110245334A1, “USE OF RACEMATES OF PINOCEMBRIN IN PREPARING MEDICAMENTS FOR TREATING STROKE” (CSPC Zhonggi Pharmaceutical Technology (Shijiazhuang) Co. …, priority 2008, published 2011)

What was measured:
NO and TNF-α = NO and TNF-α contents in MCAO rats' serum; assay type: in vivo, rat; details: 24 hours after ischemia
tMCAO rats = experiment: Therapeutic time window in focal cerebral ischemia-reperfusion injured rats; assay type: in vivo, rat; details: 1 mg/kg, 5 mg/kg; for effect on neurobehavioral injury, infarct volume and cerebral edema: tMCAO rats
Protocol: 1. In the test, transient middle cerebral artery occlusion (tMCAO) model of rats was adopted. The reperfusion was performed after focal cerebral ischemia for 2 hours so as to inspect therapeutic time window of pinocembrin after focal cerebral ischemia. The rats were administered by pinocembrin racemate (1 mg/kg, 5 mg/kg, intravenous injection) after reperfusion 1 hour, 4 hours and 6 hours (i.e., ischemia 3 hour, 6 hours and 8 hours). (R)-pinocembrin and (S)-pinocembrin (1 mg/kg, 5 mg/kg, intravenous injection) were administered after reperfusion 1 hour and 4 hours (i.e., ischemia 3 hour and 6 hours). The therapeutic time windows of these drugs in focal cerebral ischemia were assessed by studying their effects to neurological symptom scores, infarct sizes and brain water contents during 24 hours after tMCAO.
2.4 Experimental Grouping and Administration • Sham operation group (intravenous injection of normal saline after 3 hours of ischemia); • Model group (intravenous injection of 50 mg/kg hydroxypropyl β-cyclodextrin after 3 hours of ischemia); • Nimodipine group (1 mg/kg, administered after 3 hours of ischemia); • Pinocembrin racemate group (1 mg/kg, 5 mg/kg, administered after 3, 6 and 8 hours of ischemia); • (R)-pinocembrin group (1 mg/kg, 5 mg/kg, administered after 3 and 6 hours of ischemia); • (S)-pinocembrin group (1 mg/kg, 5 mg/kg, administered after 3 and 6 hours of ischemia).
First administration was performed by intravenous injection, and intraperitoneal injection was carried out once 12 hours later with a dose 1.5 times of that for intravenous injection.

MCAO rats = experiment: Cerebral edema and Evans blue / fluorescein sodium leakage, MCAO; assay type: in vivo, rat; details: 24 hours
Protocol: After surgery, a mixture solution of EB/NF (0.5%, dissolved in normal saline) of 0.25 ml was immediately (immediately after administration in the administration groups) injected via tail vein in the animals. 24 hours later, a normal saline was perfused in the hearts of the rats to get rid of unbound dye. The rats were decollated and the brain tissues were promptly removed and separated into ischemic hemisphere and non-ischemic hemisphere. The two hemispheres were weighted respectively and homogenated with 7.5% (w/v) trichloroacetic acid (TCA). The homogenate was divided into two parts, in which 1 ml homogenate was adjusted with 52 μl NaOH (5N) to reach a neutral pH value, and 200 μl of it was taken out to determine the fluorescence intensity (excitation 485 nm, emission 535 nm), the NF thereof was determined by using a standard curve made with NF solutions of concentration series. Another part of homogenate was centrifuged for 20 min at 12000 g and 4° C. 200 μl supernatant was taken out to a microplate and its absorbance was determined at 620 nm, and EB thereof was determined by using a standard curve made with EB solutions of concentration series. The results were expressed in form of μg EB (or NF)/g brain wet weight. Percentage of brain edema was expressed as: (brain weight in ischemic hemisphere−brain weight in non-ischemic hemisphere)/brain weight in non-ischemic hemisphere×100%.

[1] = system: cerebral ischemic tissue in MCAO rats; experiment: Energy metabolism indexes in cerebral ischemic tissue, MCAO; assay type: in vivo, rat; details: for increase of energy index relative to the model group: 24 hours of cerebral ischemia; for ADP / AMP / ATP / CrP / Energy Load: cerebral ischemic tissue, MCAO rats
Excerpt: The obtained r values were respectively rATP=0.9897, rADP=0.9896, rAMP=0.9893, rCrP=0.9981. The recovery rates of 4 kinds of standard materials were respectively (86.6±5.6) %, (94.45±7.5) %, (83.4±6.1) %, (78.69±7.3) %.

[2] = system: TNF-α, IL-1β, ICAM-1, VCAM-1, iNOS, AQP-4; experiment: Expression of TNF-α, IL-1β, ICAM-1, VCAM-1, iNOS and AQP-4 in ischemic cerebral tissue (FIG. 2); assay type: in vivo, rat
Excerpt: B is a statistic chart that quantifies the expression of TNF-α, IL-1β, ICAM-1, VCAM-1, iNOS and AQP-4 with β-actin as internal standard.
With β-actin as internal standard, the expressions of TNF-α, IL-1β, ICAM-1, VCAM-1, iNOS, AQP-4 were quantified, and the inhibition effects of pinocembrin racemate on the above proteins were seen intuitively.

in vivo = details: SD, rat, iv
[3] = 24 h after ischemia, 3 mg/kg, 10 mg/kg, 30 mg/kg in early stage of ischemia, FIG. 2

O=C1CC(c2ccccc2)Oc2cc(O)cc(O)c21 (racemic) [Pinocembrin racemate, pinocembrin racemate]
NO (NO and TNF-α; 3 mg/kg): 109.80 ± 9.38 µmol/L
TNF-α (NO and TNF-α; 3 mg/kg): 1163.09 ± 51.12 pg/mL
NO (NO and TNF-α; 10 mg/kg): 107.11 ± 9.13 µmol/L
TNF-α (NO and TNF-α; 10 mg/kg): 1104.83 ± 48.43 pg/mL
NO (NO and TNF-α; 30 mg/kg): 104.75 ± 5.03 µmol/L
TNF-α (NO and TNF-α; 30 mg/kg): 1057.48 ± 48.48 pg/mL
therapeutic time window (tMCAO rats; acute ischemic stroke in rats (tMCAO), iv): about 6 hours
effect on neurobehavioral injury, infarct volume and cerebral edema (tMCAO rats; initially injected after 3 hours of ischemia): significant
effect on neurobehavioral injury, infarct volume and cerebral edema (tMCAO rats; initially injected after 6 hours of ischemia): significant
EB leakage (μg/g tissue) (MCAO rats; 3 mg/kg iv): 6.16 ± 0.4 μg/g tissue
NF leakage (μg/g tissue) (MCAO rats; 3 mg/kg iv): 1.48 ± 0.08 μg/g tissue
Percentage of brain edema volume (%) (MCAO rats; 3 mg/kg iv, 3 mg/kg): 5.5±1.7%
EB leakage (μg/g tissue) (MCAO rats; 10 mg/kg iv): 5.03 ± 0.8 μg/g tissue
NF leakage (μg/g tissue) (MCAO rats; 10 mg/kg iv): 1.39 ± 0.20 μg/g tissue
Percentage of brain edema volume (%) (MCAO rats; 10 mg/kg iv, 10 mg/kg): 4.1±1.5%
EB leakage (μg/g tissue) (MCAO rats; 30 mg/kg iv): 4.39 ± 0.4 μg/g tissue
NF leakage (μg/g tissue) (MCAO rats; 30 mg/kg iv): 1.30 ± 0.15 μg/g tissue
Percentage of brain edema volume (%) (MCAO rats; 30 mg/kg iv, 30 mg/kg): 3.2±2.1%
increase of energy index relative to the model group ([1]; first of two values printed for groups 3, 10, 30 mg/kg): 34.6%
increase of energy index relative to the model group ([1]; second of two values printed for groups 3, 10, 30 mg/kg): 45.8%
ADP ([1]; 3 mg/kg): 0.31 ± 0.04 µmol/g
AMP ([1]; 3 mg/kg): 0.02 ± 0.00 µmol/g
ATP ([1]; 3 mg/kg): 1.18 ± 0.18 µmol/g
CrP ([1]; 3 mg/kg): 3.98 ± 1.23 µmol/g
Energy Load ([1]; 3 mg/kg): 0.73 ± 0.23
ADP ([1]; 10 mg/kg): 0.35 ± 0.06 µmol/g
AMP ([1]; 10 mg/kg): 0.02 ± 0.00 µmol/g
ATP ([1]; 10 mg/kg): 1.62 ± 0.21 µmol/g
CrP ([1]; 10 mg/kg): 4.12 ± 1.25 µmol/g
Energy Load ([1]; 10 mg/kg): 0.88 ± 0.23
ADP ([1]; 30 mg/kg): 0.38 ± 0.05 µmol/g
AMP ([1]; 30 mg/kg): 0.02 ± 0.00 µmol/g
ATP ([1]; 30 mg/kg): 1.97 ± 0.58 µmol/g
CrP ([1]; 30 mg/kg): 4.43 ± 1.34 µmol/g
Energy Load ([1]; 30 mg/kg): 0.96 ± 0.29
expression of cytokines TNF-α and IL-1β in cerebral ischemia tissue [2, 3]: inhibited the expression of TNF-α, IL-1β in some extents
expression of iNOS and AQP-4 protein [2, 3]: inhibited the expression of iNOS and AQP-4 protein in some extents
inhibition of expression of TNF-α, IL-1β, ICAM-1, VCAM-1, iNOS, AQP-4 quantified with β-actin as internal standard ([2]; doses of 10 mg/kg and 30 mg/kg): showed better results
LD50 (in vivo): 491 mg/kg
